This is an account of results in paper PMC10865825, “Sugar-binding and split domain combinations in repeats-in-toxin adhesins from Vibrio cholerae and Aeromonas veronii mediate cell-surface recognition and hemolytic activities” (mBio, 2024).

The test addresses T1, AvSBD-UKD (sugar-binding domain and split Ig-like domain of the A. veronii RTX adhesin, WP_103422706.1).
T1 construct: AvSBD-UKD, 40 kDa ortholog construct (WP_103422706.1), spanning SBD and UKD
Kind of test: isothermal titration calorimetry ([…]°C, one-site model, N = […]). Set-up: species or system Aeromonas veronii. Background: In ITC the heat of successive injections is recorded.

For the compound `C[C@@H]1OC(O)[C@@H](O)[C@H](O)[C@@H]1O` (stereo partly drawn) [L-fucose], binding was characterised by a dissociation constant (Kd) of 15 µM.
